Measurements from ChEMBL document CHEMBL3124935, “Synthesis and study of cytotoxic activity of 1,2,4-trioxane- and egonol-derived hybrid molecules against Plasmodium falciparum and multidrug-resistant human leukemia cells” (Eur J Med Chem, 2014).

Tests used:
Plasmodium falciparum = assay: Antimalarial activity against Plasmodium falciparum 3D7 assessed as growth inhibition after 3 days by HRP2 based ELISA; assay type: functional, organism-based; details: 3D7, 72 h
CCRF-CEM [1] = assay: Cytotoxicity against human CCRF-CEM cells by resazurin assay; assay type: functional, cell-based
[2] = Cytotoxicity against human multidrug-resistant CEM/ADR5000 cells expressing p-glycoprotein at 400 uM by resazurin assay; assay type: functional, cell-based
CCRF-CEM [3] = assay: Resistance ratio of IC50 for human multidrug-resistant CEM/ADR5000 cells expressing p-glycoprotein to IC50 for human CCRF-CEM cells; assay type: functional
[4] = Cytotoxicity against human multidrug-resistant CEM/ADR5000 cells expressing p-glycoprotein by resazurin assay; assay type: functional, cell-based

SMILES	IC50 (Plasmodium falciparum) [nM]	IC50 (CCRF-CEM [1]) [nM]	IC50 [2]	Ratio IC50 (CCRF-CEM [3])	IC50 [4] [nM]
C[C@H]1[C@H](OC(=O)CCC(=O)NCCCCCCCCNC(=O)CCC(=O)O[C@@H]2O[C@@H]3O[C@@]4(C)CC[C@H]5[C@H](C)CC[C@@H]([C@H]2C)[C@@]35OO4)O[C@@H]2O[C@@]3(C)CC[C@H]4[C@H](C)CC[C@@H]1[C@@]24OO3	0.3	–	–	–	–
C[C@@H]1CC[C@H]2[C@@H](C)C(CCCO)O[C@@H]3O[C@@]4(C)CC[C@@H]1[C@]32OO4 (some centres undefined)	–	174000	Not Active	–	–
COc1cc(CCCOC(=O)CCC(=O)O[C@@H]2O[C@@H]3O[C@@]4(C)CC[C@H]5[C@H](C)CC[C@@H]([C@H]2C)[C@@]35OO4)cc2cc(-c3ccc4c(c3)OCO4)oc12	2.3	180	–	6.12	1120
COc1cccc2c1C(=O)c1c(O)c3c(c(O)c1C2=O)C[C@@](O)(C(=O)CO)C[C@@H]3O[C@H]1C[C@H](N)[C@H](O)[C@H](C)O1 [DOXORUBICIN]	–	9	–	2585	23300
C[C@@H]1CC[C@H]2[C@@H](C)C(=O)O[C@@H]3O[C@@]4(C)CC[C@@H]1[C@]32OO4 [ARTEMISININ]	–	–	–	0.73	–
COc1cc(CCCO)cc2cc(-c3ccc4c(c3)OCO4)oc12 [EGONOL]	25400	5750	–	1.7	9780
C[C@H]1[C@H](OC(=O)CCC(=O)NCC(O)CNC(=O)CCC(=O)O[C@@H]2O[C@@H]3O[C@@]4(C)CC[C@H]5[C@H](C)CC[C@@H]([C@H]2C)[C@@]35OO4)O[C@@H]2O[C@@]3(C)CC[C@H]4[C@H](C)CC[C@@H]1[C@@]24OO3 (some centres undefined)	0.32	–	–	–	–
C[C@H]1[C@H](OC(=O)CCC(=O)O)O[C@@H]2O[C@@]3(C)CC[C@H]4[C@H](C)CC[C@@H]1[C@@]24OO3 [ARTESUNATE]	0.82	–	–	0.67	1200
